The text below walks through data of ChEMBL document CHEMBL3091428, “Synthesis and initial biological evaluation of substituted 1-phenylamino-2-thio-4,5-dimethyl-1H-imidazole derivatives” (Bioorg Med Chem Lett, 2013).

Molecules are shown by their SMILES. ≈ marks a conversion by molar mass, not a printed value.

Holding throughout (format): functional
One test deals with Klebsiella pneumoniae. Nature of the test: Antimicrobial activity against Klebsiella pneumoniae ATCC 13883 after 24 hrs by broth microdilution method. Particulars: ATCC 13883, 24 h.
For test [1], the system named is Escherichia coli. Description: Antimicrobial activity against Escherichia coli ATCC 35218 after 24 hrs by broth microdilution method. Particulars: ATCC 35218, 24 h.
For another test, the system named is Pichia kudriavzevii. Description: Antimicrobial activity against Candida krusei ATCC 6258 after 24 hrs by broth microdilution method. Particulars: ATCC 6258, 24 h.
The test system of test [2] is Enterococcus faecalis. Nature of the test: Antimicrobial activity against Enterococcus faecalis ATCC 29212 after 24 hrs by broth microdilution method. Particulars: ATCC 29212, 24 h.
Another test concerns Listeria monocytogenes. Description: Antimicrobial activity against Listeria monocytogenes ATCC 19115 after 24 hrs by broth microdilution method. Particulars: ATCC 19115, 24 h.
Another test concerns Nakaseomyces glabratus. Description: Antimicrobial activity against Candida glabrata ATCC 90030 after 24 hrs by broth microdilution method. Particulars: ATCC 90030, 24 h.
The next test relates to Candida albicans. Nature of the test: Antimicrobial activity against Candida albicans ATCC 90028 after 24 hrs by broth microdilution method. Particulars: ATCC 90028, 24 h.
The next test deals with Pseudomonas aeruginosa. Nature of the test: Antimicrobial activity against Pseudomonas aeruginosa ATCC 27853 after 24 hrs by broth microdilution method. Particulars: ATCC 27853, 24 h.
Another test concerns Staphylococcus aureus. Description: Antimicrobial activity against Staphylococcus aureus ATCC 25923 after 24 hrs by broth microdilution method. Particulars: ATCC 25923, 24 h.
The subject of test [3] is Enterococcus faecalis. Description: Antimicrobial activity against Enterococcus faecalis ATCC 51299 after 24 hrs by broth microdilution method. Particulars: ATCC 51299, 24 h.
The test system of test [4] is Escherichia coli. Nature of the test: Antimicrobial activity against Escherichia coli ATCC 25922 after 24 hrs by broth microdilution method. Particulars: ATCC 25922, 24 h.

With `COc1ccc(C(=O)CSc2nc(C)c(C)n2Nc2ccc(Cl)cc2)cc1OC`, the MIC in the test on Klebsiella pneumoniae came out at 800 µg/mL (≈ 1850 µM); with Escherichia coli [1], 800 µg/mL (≈ 1850 µM); in the test on Pichia kudriavzevii, 400 µg/mL (≈ 926 µM); in the test with Enterococcus faecalis [2], 100 µg/mL (≈ 232 µM); against Listeria monocytogenes, 100 µg/mL (≈ 232 µM); against Nakaseomyces glabratus, 400 µg/mL (≈ 926 µM). Also, the MIC was 400 µg/mL (≈ 926 µM) with Candida albicans; 400 µg/mL (≈ 926 µM) against Pseudomonas aeruginosa; 800 µg/mL (≈ 1850 µM) in the test on Staphylococcus aureus; 800 µg/mL (≈ 1850 µM) with Enterococcus faecalis [3]; 400 µg/mL (≈ 926 µM) with Escherichia coli [4].

As for `Cc1nc(SCC(=O)c2cccc(F)c2)n(Nc2ccc(Cl)cc2)c1C`, the MIC against Klebsiella pneumoniae worked out at 800 µg/mL (≈ 2050 µM); in the test on Escherichia coli [1], 800 µg/mL (≈ 2050 µM); in the test on Pichia kudriavzevii it was 400 µg/mL (≈ 1030 µM); in the test with Enterococcus faecalis [2] it was 100 µg/mL (≈ 256 µM); with Listeria monocytogenes it was 200 µg/mL (≈ 513 µM); with Nakaseomyces glabratus, 400 µg/mL (≈ 1030 µM). Moreover, the MIC against Candida albicans was 400 µg/mL (≈ 1030 µM); in the test on Pseudomonas aeruginosa it was 400 µg/mL (≈ 1030 µM); in the test with Staphylococcus aureus, 800 µg/mL (≈ 2050 µM); against Enterococcus faecalis [3], 800 µg/mL (≈ 2050 µM); in the test on Escherichia coli [4], 400 µg/mL (≈ 1030 µM).

In the case of `Cc1nc(SCC(=O)c2ccc(F)cc2)n(Nc2ccc(Cl)cc2)c1C`, the MIC against Klebsiella pneumoniae stood at 800 µg/mL (≈ 2050 µM); with Escherichia coli [1], 1600 µg/mL (≈ 4100 µM); against Pichia kudriavzevii, 800 µg/mL (≈ 2050 µM); with Enterococcus faecalis [2], 1600 µg/mL (≈ 4100 µM); in the test with Listeria monocytogenes, 3200 µg/mL (≈ 8210 µM); against Nakaseomyces glabratus, 1600 µg/mL (≈ 4100 µM). Also, the MIC in the test with Candida albicans is 800 µg/mL (≈ 2050 µM); against Pseudomonas aeruginosa, 1600 µg/mL (≈ 4100 µM); in the test on Staphylococcus aureus, 800 µg/mL (≈ 2050 µM); against Enterococcus faecalis [3] it was 800 µg/mL (≈ 2050 µM); in the test on Escherichia coli [4] it was 1600 µg/mL (≈ 4100 µM).

With `Cc1nc(SCC(=O)c2cccc(Cl)c2)n(Nc2ccc(Cl)cc2)c1C`, the minimum inhibitory concentration (MIC) against Klebsiella pneumoniae amounted to 800 µg/mL (≈ 1970 µM); with Escherichia coli [1], 800 µg/mL (≈ 1970 µM); against Pichia kudriavzevii, 800 µg/mL (≈ 1970 µM); against Enterococcus faecalis [2], 400 µg/mL (≈ 984 µM); against Listeria monocytogenes it was 800 µg/mL (≈ 1970 µM); in the test with Nakaseomyces glabratus, 400 µg/mL (≈ 984 µM). Moreover, the MIC came out at 800 µg/mL (≈ 1970 µM) with Candida albicans; 400 µg/mL (≈ 984 µM) against Pseudomonas aeruginosa; 800 µg/mL (≈ 1970 µM) against Staphylococcus aureus; 800 µg/mL (≈ 1970 µM) in the test with Enterococcus faecalis [3]; 800 µg/mL (≈ 1970 µM) against Escherichia coli [4].

Regarding `Cc1nc(SCC(=O)c2ccc(Cl)cc2)n(Nc2ccc(Cl)cc2)c1C`, the minimal inhibitory concentration (MIC) against Klebsiella pneumoniae was 800 µg/mL (≈ 1970 µM); in the test with Escherichia coli [1], 800 µg/mL (≈ 1970 µM); in the test with Pichia kudriavzevii, 400 µg/mL (≈ 984 µM); with Enterococcus faecalis [2], 800 µg/mL (≈ 1970 µM); with Listeria monocytogenes, 800 µg/mL (≈ 1970 µM); in the test with Nakaseomyces glabratus it was 800 µg/mL (≈ 1970 µM). The MIC with Candida albicans was 800 µg/mL (≈ 1970 µM); against Pseudomonas aeruginosa it was 400 µg/mL (≈ 984 µM); in the test on Staphylococcus aureus it was 800 µg/mL (≈ 1970 µM); against Enterococcus faecalis [3] it was 800 µg/mL (≈ 1970 µM); in the test with Escherichia coli [4], 800 µg/mL (≈ 1970 µM).

Take `Cc1nc(SCC(=O)c2ccc(Cl)c(Cl)c2)n(Nc2ccc(Cl)cc2)c1C`: the MIC came out at 800 µg/mL (≈ 1810 µM) in the test with Klebsiella pneumoniae; 200 µg/mL (≈ 454 µM) in the test on Escherichia coli [1]; 400 µg/mL (≈ 907 µM) in the test with Pichia kudriavzevii; 50 µg/mL (≈ 113 µM) against Enterococcus faecalis [2]; 200 µg/mL (≈ 454 µM) in the test with Listeria monocytogenes; 400 µg/mL (≈ 907 µM) with Nakaseomyces glabratus. In addition, the minimum inhibitory concentration (MIC) against Candida albicans stood at 800 µg/mL (≈ 1810 µM); against Pseudomonas aeruginosa it was 400 µg/mL (≈ 907 µM); in the test on Staphylococcus aureus it was 800 µg/mL (≈ 1810 µM); against Enterococcus faecalis [3], 800 µg/mL (≈ 1810 µM); against Escherichia coli [4] it was 800 µg/mL (≈ 1810 µM).

In the case of `COc1ccc(Nn2c(SCC(=O)c3cccc(OC)c3)nc(C)c2C)cc1`, the MIC in the test with Klebsiella pneumoniae, in the test on Escherichia coli [1], in the test on Pichia kudriavzevii, in the test with Enterococcus faecalis [2], in the test with Listeria monocytogenes and in the test on Nakaseomyces glabratus was 800 µg/mL (≈ 2010 µM) throughout. For the same molecule, the MIC in the test with Candida albicans came to 800 µg/mL (≈ 2010 µM); in the test on Pseudomonas aeruginosa, 800 µg/mL (≈ 2010 µM); against Staphylococcus aureus, 800 µg/mL (≈ 2010 µM); in the test on Enterococcus faecalis [3], 200 µg/mL (≈ 503 µM); in the test on Escherichia coli [4], 800 µg/mL (≈ 2010 µM).

For `COc1ccc(C(=O)CSc2nc(C)c(C)n2Nc2ccc(OO)cc2)cc1`, the MIC in the test with Klebsiella pneumoniae was determined as 800 µg/mL (≈ 2000 µM); against Escherichia coli [1] it was 800 µg/mL (≈ 2000 µM); against Pichia kudriavzevii, 400 µg/mL (≈ 1000 µM); against Enterococcus faecalis [2], 800 µg/mL (≈ 2000 µM); with Listeria monocytogenes it was 800 µg/mL (≈ 2000 µM); in the test on Nakaseomyces glabratus, 800 µg/mL (≈ 2000 µM). Besides, the minimum inhibitory concentration (MIC) amounted to 400 µg/mL (≈ 1000 µM) in the test on Candida albicans; 800 µg/mL (≈ 2000 µM) against Pseudomonas aeruginosa; 800 µg/mL (≈ 2000 µM) against Staphylococcus aureus; 800 µg/mL (≈ 2000 µM) with Enterococcus faecalis [3]; 800 µg/mL (≈ 2000 µM) in the test on Escherichia coli [4].

In the case of `COc1ccc(Nn2c(SCC(=O)c3ccc(OC)c(OC)c3)nc(C)c2C)cc1`, the minimum inhibitory concentration (MIC) against Klebsiella pneumoniae came out at 800 µg/mL (≈ 1870 µM); in the test on Escherichia coli [1], 800 µg/mL (≈ 1870 µM); with Pichia kudriavzevii, 200 µg/mL (≈ 468 µM); against Enterococcus faecalis [2] it was 800 µg/mL (≈ 1870 µM); with Listeria monocytogenes, 800 µg/mL (≈ 1870 µM); in the test with Nakaseomyces glabratus, 400 µg/mL (≈ 936 µM). The MIC against Candida albicans turned out to be 200 µg/mL (≈ 468 µM); against Pseudomonas aeruginosa, 800 µg/mL (≈ 1870 µM); against Staphylococcus aureus it was 800 µg/mL (≈ 1870 µM); in the test with Enterococcus faecalis [3], 1600 µg/mL (≈ 3740 µM); against Escherichia coli [4], 800 µg/mL (≈ 1870 µM).

With `COc1ccc(Nn2c(SCC(=O)c3cccc(F)c3)nc(C)c2C)cc1`, the minimum inhibitory concentration (MIC) in the test with Klebsiella pneumoniae was found to be 800 µg/mL (≈ 2080 µM); in the test on Escherichia coli [1], 800 µg/mL (≈ 2080 µM); against Pichia kudriavzevii, 400 µg/mL (≈ 1040 µM); in the test on Enterococcus faecalis [2], 400 µg/mL (≈ 1040 µM); against Listeria monocytogenes, 400 µg/mL (≈ 1040 µM); against Nakaseomyces glabratus, 400 µg/mL (≈ 1040 µM). For the same molecule, the MIC with Candida albicans came out at 400 µg/mL (≈ 1040 µM); in the test on Pseudomonas aeruginosa, 400 µg/mL (≈ 1040 µM); with Staphylococcus aureus it was 400 µg/mL (≈ 1040 µM); with Enterococcus faecalis [3], 800 µg/mL (≈ 2080 µM); against Escherichia coli [4], 800 µg/mL (≈ 2080 µM).
